From patent publication US9695155B2, “Herbicidal substituted pyrimidinyloxy benzene compounds” (E. I. DU PONT DE NEMOURS AND COMPANY, priority 2013, dated 2017)

Tests used:
giant foxtail [1] = test: Test A postemergence; format: in vivo, Setaria faberii
How it was run: (§1)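 Greenhouse pot test, loam/sand soil. Formulation: non-phytotoxic solvent mix plus surfactant. Pre: directed spray onto soil after sowing. Post: plants at 1–2 leaf, 2–10 cm. Rated visually vs untreated controls at ~10 d, 0 (no effect) to 100 (complete control).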

ragweed = test: Test C postemergence; format: in vivo, Ambrosia elatior
How it was run: (§2)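 Seeds are planted in blended loam soil and sand and treated preemergence, while seedlings in a peat moss/vermiculite medium receive postemergence sprays at 2 to 18 cm height. All plants stay in the greenhouse for 13 to 15 days before visual comparison with controls on a 0–100 scale.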

oilseed rape = test: Test C preemergence; format: in vivo, Brassica napus
How it was run: as §2

Heteranthera limosa = test: Test B flooded paddy test; format: in vivo; details: Flood, 250 g ai/ha, 0 to 100 scale where 0 is no effect and 100 is complete control
How it was run: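 Seedlings are raised to two leaves, flooded to a depth of 3 cm and dosed by adding the compound to the floodwater. Water level is kept constant, and plants are scored visually versus controls 13–15 days later (0 = no effect, 100 = complete control).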

corn = test: Test C preemergence; format: in vivo, Zea mays
How it was run: as §2

galium = test: Test C postemergence; format: in vivo, Galium aparine
How it was run: as §2

wheat = test: Test A preemergence; format: in vivo, Triticum aestivum; details: for Plant response rating, Wheat: 125 g ai/ha, 0 to 100 scale where 0 is no effect and 100 is complete control
How it was run: as §1

johnsongrass = test: Test C postemergence; format: in vivo, Sorghum halepense
How it was run: as §2

waterhemp = test: Test C preemergence; format: in vivo, Amaranthus rudis
How it was run: as §2

morningglory = test: Test A postemergence; format: in vivo, Ipomoea spp.
How it was run: as §1

giant foxtail [2] = test: Test C preemergence; format: in vivo, Setaria faberii
How it was run: as §2

[3] = 500 g ai/ha, 0 to 100 scale where 0 is no effect and 100 is complete control
[4] = 125 g ai/ha, postemergence, visual rating, scale 0 to 100 (0 no effect, 100 complete control)
[5] = Postemergence, 62 g ai/ha, scale 0 to 100 (0 no effect, 100 complete control)
[6] = 16 g ai/ha, preemergence, scale 0 to 100 (0 no effect, 100 complete control)
[7] = 62 g ai/ha, preemergence, scale 0 (no effect) to 100 (complete control)
[8] = 125 g ai/ha, preemergence, scale 0 (no effect) to 100 (complete control)
[9] = Preemergence, 31 g ai/ha, scale 0 to 100, 0 no effect, 100 complete control
[10] = 16 g ai/ha, postemergence, visual rating, scale 0 to 100 (0 no effect, 100 complete control), 13 to 15 days

N#Cc1cccc(Oc2ncc(Cl)cn2)c1-n1cc(C(F)(F)F)cn1 [Compound 58, 3-[(5-chloro-2-pyrimidinyl)oxy]-2-[4-(trifluoromethyl)-1H-pyrazol-1-yl]benzonitrile]
pest or weed control at 125 g/ha (giant foxtail [1]; Setaria faberi, post-emergence, 240 h, 125 g ai/ha, 0 to 100 scale where 0 is no effect and 100 is complete control, read-out: Plant response rating, Foxtail, Giant): 100% | pest or weed control at 500 g/ha (giant foxtail [1]; Setaria faberi, post-emergence, 240 h, 500 g ai/ha, 0 to 100 scale, 0 no effect, 100 complete control, read-out: Plant response rating Foxtail, Giant): 100% | pest or weed control at 125 g/ha (ragweed; Ambrosia artemisiifolia, post-emergence, 125 g ai/ha, postemergence, read-out: Plant response rating (0 to 100), Ragweed): 85% | pest or weed control at 250 g/ha (ragweed; Ambrosia artemisiifolia, post-emergence, 250 g ai/ha, postemergence, read-out: Plant response rating (0 to 100), Ragweed): 90% | pest or weed control at 31 g/ha (ragweed; Ambrosia artemisiifolia, post-emergence, Postemergence, 31 g ai/ha, scale 0 to 100 (0 no effect, 100 complete control), 13 to 15 days, read-out: Plant response rating, Ragweed): 40% | pest or weed control at 62 g/ha (ragweed; Ambrosia artemisiifolia, post-emergence, Postemergence, 62 g ai/ha, scale 0 to 100 (0 no effect, 100 complete control), read-out: Plant response rating, Ragweed): 45% | plant injury at 62 g/ha (oilseed rape; Brassica napus, pre-emergence, 62 g ai/ha, preemergence, scale 0 (no effect) to 100 (complete control), read-out: Oilseed Rape plant response rating): 100% | plant injury at 125 g/ha (oilseed rape; Brassica napus, pre-emergence, 125 g ai/ha, preemergence, scale 0 (no effect) to 100 (complete control), read-out: Oilseed Rape plant response rating): 100% | plant injury at 250 g/ha (oilseed rape; Brassica napus, pre-emergence, 250 g ai/ha, preemergence, scale 0 (no effect) to 100 (complete control), read-out: Oilseed Rape plant response rating): 100% | plant injury at 31 g/ha (oilseed rape; Brassica napus, pre-emergence, Preemergence, 31 g ai/ha, scale 0 to 100, 0 no effect, 100 complete control, read-out: Plant response rating, Oilseed Rape): 100% | pest or weed control at 250 g/ha (Heteranthera limosa; Heteranthera limosa, read-out: Plant response rating, Ducksalad): 90% | plant injury at 62 g/ha (corn; Zea mays, pre-emergence, 62 g ai/ha, preemergence, scale 0 (no effect) to 100 (complete control), read-out: Corn plant response rating): 90% | plant injury at 125 g/ha (corn; Zea mays, pre-emergence, 125 g ai/ha, preemergence, scale 0 (no effect) to 100 (complete control), read-out: Corn plant response rating): 98% | plant injury at 250 g/ha (corn; Zea mays, pre-emergence, 250 g ai/ha, preemergence, scale 0 (no effect) to 100 (complete control), read-out: Corn plant response rating): 98% | Corn plant response rating (crop injury, 0 = no effect, 100 = complete kill) at 31 g/ha (corn; Zea mays, pre-emergence, Preemergence, 31 g ai/ha, scale 0 to 100, 0 no effect, 100 complete control): 60% | pest or weed control at 125 g/ha (galium; Galium, post-emergence, 125 g ai/ha, postemergence, read-out: Plant response rating (0 to 100), Galium): 85% | pest or weed control at 250 g/ha (galium; Galium, post-emergence, 250 g ai/ha, postemergence, read-out: Plant response rating (0 to 100), Galium): 95% | pest or weed control at 31 g/ha (galium; Galium, post-emergence, Postemergence, 31 g ai/ha, scale 0 to 100 (0 no effect, 100 complete control), 13 to 15 days, read-out: Plant response rating, Galium): 60% | pest or weed control at 62 g/ha (galium; Galium, post-emergence, Postemergence, 62 g ai/ha, scale 0 to 100 (0 no effect, 100 complete control), read-out: Plant response rating, Galium): 70% | Plant response rating, Wheat (wheat): 60 | plant injury at 500 g/ha (wheat; Triticum aestivum, pre-emergence, 240 h, 500 g ai/ha, 0 to 100 scale, 0 no effect, 100 complete control, approx. 10 days, read-out: Wheat plant response rating): 90% | pest or weed control at 125 g/ha (johnsongrass; Sorghum halepense, post-emergence, 125 g ai/ha, postemergence, read-out: Plant response rating (0 to 100), Johnsongrass): 35% | pest or weed control at 250 g/ha (johnsongrass; Sorghum halepense, post-emergence, 250 g ai/ha, postemergence, read-out: Plant response rating (0 to 100), Johnsongrass): 85% | pest or weed control at 31 g/ha (johnsongrass; Sorghum halepense, post-emergence, Postemergence, 31 g ai/ha, scale 0 to 100 (0 no effect, 100 complete control), 13 to 15 days, read-out: Plant response rating, Johnsongrass): 15% | pest or weed control at 62 g/ha (johnsongrass; Sorghum halepense, post-emergence, Postemergence, 62 g ai/ha, scale 0 to 100 (0 no effect, 100 complete control), read-out: Plant response rating, Johnsongrass): 15% | pest or weed control at 62 g/ha (waterhemp; Amaranthus tuberculatus, pre-emergence, 62 g ai/ha, preemergence, scale 0 (no effect) to 100 (complete control), read-out: Waterhemp plant response rating): 100% | pest or weed control at 125 g/ha (waterhemp; Amaranthus tuberculatus, pre-emergence, 125 g ai/ha, preemergence, scale 0 (no effect) to 100 (complete control), read-out: Waterhemp plant response rating): 100% | pest or weed control at 250 g/ha (waterhemp; Amaranthus tuberculatus, pre-emergence, 250 g ai/ha, preemergence, scale 0 (no effect) to 100 (complete control), read-out: Waterhemp plant response rating): 100% | pest or weed control at 31 g/ha (waterhemp; Amaranthus tuberculatus, pre-emergence, Preemergence, 31 g ai/ha, scale 0 to 100, 0 no effect, 100 complete control, read-out: Plant response rating, Waterhemp): 100% | pest or weed control at 125 g/ha (morningglory; Ipomoea, post-emergence, 240 h, 125 g ai/ha, 0 to 100 scale where 0 is no effect and 100 is complete control, read-out: Plant response rating, Morningglory): 100% | pest or weed control at 500 g/ha (morningglory; Ipomoea, post-emergence, 240 h, 500 g ai/ha, 0 to 100 scale, 0 no effect, 100 complete control, read-out: Plant response rating Morningglory): 100% | pest or weed control at 62 g/ha (giant foxtail [2]; Setaria faberi, pre-emergence, 62 g ai/ha, preemergence, scale 0 (no effect) to 100 (complete control), read-out: Foxtail, Giant plant response rating): 100% | pest or weed control at 125 g/ha (giant foxtail [2]; Setaria faberi, pre-emergence, 125 g ai/ha, preemergence, scale 0 (no effect) to 100 (complete control), read-out: Foxtail, Giant plant response rating): 100% | pest or weed control at 250 g/ha (giant foxtail [2]; Setaria faberi, pre-emergence, 250 g ai/ha, preemergence, scale 0 (no effect) to 100 (complete control), read-out: Foxtail, Giant plant response rating): 100% | pest or weed control at 31 g/ha (giant foxtail [2]; Setaria faberi, pre-emergence, Preemergence, 31 g ai/ha, scale 0 to 100, 0 no effect, 100 complete control, read-out: Plant response rating, Foxtail, Giant): 100%

N#Cc1cnn(-c2c(C#N)cccc2Oc2ncc(F)cn2)c1 [Compound 111]
Plant response rating, Foxtail, Giant (giant foxtail [1]; 125 g ai/ha, 0 to 100 scale where 0 is no effect and 100 is complete control): 80 | Plant response rating, Foxtail, Giant (giant foxtail [1]; [3]): 90 | Plant response rating, Ragweed (ragweed; [4]): 90 | Plant response rating, Ragweed (ragweed; [5]): 70 | Oilseed Rape plant response rating (oilseed rape; [6]): 60 | Oilseed Rape plant response rating (oilseed rape; [7]): 98 | Oilseed Rape plant response rating (oilseed rape; [8]): 100 | Plant response rating, Oilseed Rape (oilseed rape; [9]): 90 | Plant response rating, Ducksalad (Heteranthera limosa): 70 | Corn plant response rating (corn; [6]): 5 | Corn plant response rating (corn; [7]): 5 | Corn plant response rating (corn; [8]): 65 | Plant response rating, Corn (corn; [9]): 5 | Galium plant response rating (galium; [10]): 80 | Plant response rating, Galium (galium; [4]): 100 | Plant response rating, Galium (galium; [5]): 90 | Plant response rating, Wheat (wheat): 0 | Johnsongrass plant response rating (johnsongrass; [10]): 5 | Plant response rating, Johnsongrass (johnsongrass; [4]): 10 | Plant response rating, Johnsongrass (johnsongrass; [5]): 5 | Waterhemp plant response rating (waterhemp; [6]): 100 | Waterhemp plant response rating (waterhemp; [7]): 100 | Waterhemp plant response rating (waterhemp; [8]): 100 | Plant response rating, Waterhemp (waterhemp; [9]): 100 | Plant response rating, Morningglory (morningglory; [3]): 90 | Foxtail, Giant plant response rating (giant foxtail [2]; [6]): 15 | Foxtail, Giant plant response rating (giant foxtail [2]; [7]): 100 | Foxtail, Giant plant response rating (giant foxtail [2]; [8]): 100 | Plant response rating, Foxtail, Giant (giant foxtail [2]; [9]): 100
